From the supplement of paper PMC10307832

Assays:
Test in all cases: relative viability (nuclei count vs DMSO), 5 days (fraction); higher = more cells survive
VE-821 + Bortezomib = compound: CS(=O)(=O)c1ccc(-c2cnc(N)c(C(=O)Nc3ccccc3)n2)cc1 [VE-821] + CC(C)C[C@H](NC(=O)[C@H](Cc1ccccc1)NC(=O)c1cnccn1)B(O)O [Bortezomib] (partner 0.002 µM)
Summary of the method: (§1)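 Values are medians from duplicate plates. Each reflects relative viability, defined as the nuclei count of treated wells over that of vehicle wells. Lung cancer cell lines in 1536-well plates were pin-tool dosed one day after seeding with one drug alone or with a fixed anchor-drug dose plus five library-drug doses (not always all listed) in √10 steps, then fixed, stained and imaged at 4× after 5 days.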

Vismodegib + Dasatinib = compound: CS(=O)(=O)c1ccc(C(=O)Nc2ccc(Cl)c(-c3ccccn3)c2)c(Cl)c1 [Vismodegib] + Cc1nc(Nc2ncc(C(=O)Nc3c(C)cccc3Cl)s2)cc(N2CCN(CCO)CC2)n1 [Dasatinib] (partner 0.075 µM)
Summary of the method: as §1

Vismodegib + Bortezomib = compound: CS(=O)(=O)c1ccc(C(=O)Nc2ccc(Cl)c(-c3ccccn3)c2)c(Cl)c1 [Vismodegib] + CC(C)C[C@H](NC(=O)[C@H](Cc1ccccc1)NC(=O)c1cnccn1)B(O)O [Bortezomib] (partner 0.002 µM)
Summary of the method: as §1

Vismodegib + Crizotinib = compound: CS(=O)(=O)c1ccc(C(=O)Nc2ccc(Cl)c(-c3ccccn3)c2)c(Cl)c1 [Vismodegib] + C[C@@H](Oc1cc(-c2cnn(C3CCNCC3)c2)cnc1N)c1c(Cl)ccc(F)c1Cl [Crizotinib] (partner 1 µM)
Summary of the method: as §1

Cell Line | relative viability (VE-821 + Bortezomib; first compound 0.08 µM) | relative viability (VE-821 + Bortezomib; first compound 0.253 µM) | relative viability (VE-821 + Bortezomib; first compound 0.8 µM) | relative viability (VE-821 + Bortezomib; first compound 2.53 µM) | relative viability (VE-821 + Bortezomib; first compound 8 µM) | relative viability (Vismodegib + Dasatinib; first compound 0.08 µM) | relative viability (Vismodegib + Dasatinib; first compound 0.253 µM) | relative viability (Vismodegib + Dasatinib; first compound 0.8 µM) | relative viability (Vismodegib + Dasatinib; first compound 2.53 µM) | relative viability (Vismodegib + Dasatinib; first compound 8 µM) | relative viability (Vismodegib + Bortezomib; first compound 0.08 µM) | relative viability (Vismodegib + Bortezomib; first compound 0.253 µM) | relative viability (Vismodegib + Bortezomib; first compound 0.8 µM) | relative viability (Vismodegib + Bortezomib; first compound 2.53 µM) | relative viability (Vismodegib + Bortezomib; first compound 8 µM) | relative viability (Vismodegib + Crizotinib; first compound 0.08 µM) | relative viability (Vismodegib + Crizotinib; first compound 0.253 µM) | relative viability (Vismodegib + Crizotinib; first compound 0.8 µM) | relative viability (Vismodegib + Crizotinib; first compound 2.53 µM) | relative viability (Vismodegib + Crizotinib; first compound 8 µM)
NCI-H1651 | 0.978 | 0.964 | 1.07 | 1.04 | 0.921 | 0.434 | 0.446 | 0.388 | 0.349 | 0.591 | 1 | 0.936 | 0.953 | 0.619 | 0.882 | 0.776 | 0.851 | 0.871 | 0.825 | 0.829
NCI-H1563 | 0.908 | 0.888 | 0.784 | 0.774 | 0.763 | 0.455 | 0.443 | 0.477 | 0.495 | 0.454 | 0.845 | 0.881 | 0.904 | 0.922 | 0.906 | 0.914 | 0.801 | 0.888 | 0.814 | 0.969
NCI-H1975 | 0.482 | 0.333 | 0.381 | 0.393 | 0.347 | 0.347 | 0.338 | 0.371 | 0.267 | 0.348 | 0.381 | 0.396 | 0.374 | 0.373 | 0.398 | 0.953 | 0.957 | 0.945 | 0.826 | 0.94
NCI-H1437 | 0.504 | 0.523 | 0.46 | 0.592 | 0.4 | 0.313 | 0.372 | 0.402 | 0.328 | 0.377 | 0.408 | 0.597 | 0.594 | 0.541 | 0.539 | 0.876 | 0.912 | 0.902 | 0.934 | 0.931
HOP-62 | 0.726 | 0.389 | 0.889 | 0.838 | 0.718 | 0.663 | 0.694 | 0.609 | 0.683 | 0.683 | 0.863 | 0.657 | 0.882 | 0.743 | 0.637 | 0.991 | 0.905 | 0.867 | 0.503 | 0.908
NCI-H2405 | 1.1 | 1 | 0.974 | 1.02 | 0.947 | 0.214 | 0.228 | 0.212 | 0.235 | 0.239 | 0.833 | 0.977 | 0.978 | 0.92 | 0.995 | 0.851 | 0.86 | 0.807 | 0.784 | 0.83
LC-2-ad | 1.19 | 1.06 | 0.569 | 1.17 | 1.07 | 0.677 | 0.568 | 0.467 | 0.482 | 0.557 | 1.06 | 0.987 | 0.981 | 0.947 | 0.871 | 0.419 | 0.477 | 0.434 | 0.37 | 0.469
NCI-H322M | 1.24 | – | 1.33 | 1.25 | 1.08 | 0.244 | 0.25 | 0.243 | 0.245 | 0.255 | 1.25 | 1.12 | 1.22 | 1.23 | 1.13 | 0.858 | 0.869 | 0.849 | 0.879 | 1.08
HCC-366 | 1.06 | 1.03 | 1.04 | 0.625 | 0.062 | 0.816 | 0.587 | 0.622 | 0.693 | 0.692 | 1.06 | 1.03 | 1.06 | 0.934 | 1.06 | 0.623 | 0.567 | 0.501 | 0.508 | 0.566
HCC-78 | 0.697 | 0.561 | 0.471 | 0.549 | 0.303 | 0.32 | 0.33 | 0.363 | 0.475 | 0.351 | – | 0.498 | 0.488 | 0.549 | 0.4 | 0.307 | 0.351 | 0.286 | 0.351 | 0.347
CAL-12T | 1.04 | 0.984 | 1.13 | 0.996 | 0.717 | 0.322 | 0.224 | 0.403 | 0.586 | 0.482 | – | 0.882 | 0.91 | 0.935 | 0.999 | 0.693 | 0.761 | 0.685 | 0.773 | 0.807
NCI-H2228 | 1.23 | 0.931 | 1.2 | 0.824 | 0.635 | 0.593 | 0.529 | 0.46 | 0.452 | 0.454 | 1.08 | 0.954 | 0.958 | 0.835 | 0.965 | 0.563 | 0.412 | 0.426 | 0.547 | 0.419
EKVX | 1.06 | 1.11 | 1.02 | 1.21 | 0.912 | 0.491 | 0.561 | 0.604 | 0.576 | 0.526 | 1.1 | 1.09 | 1.1 | 1.06 | 1.03 | 0.849 | 0.895 | 0.898 | 1.09 | 0.952
HARA | 1.4 | 1.07 | 1.22 | 1.23 | 1.05 | 0.263 | 0.249 | 0.254 | 0.339 | 0.279 | 1.08 | 1.1 | 1.11 | 1.19 | 1.17 | 0.956 | 0.965 | 1.03 | 1.05 | 1.06
LXF-289 | 1.04 | 1.07 | 1.1 | 1.08 | 1.11 | 0.237 | 0.214 | 0.202 | 0.286 | 0.26 | 0.985 | 0.977 | 1.02 | 0.965 | 0.944 | 0.806 | 0.772 | 0.816 | 0.745 | 0.781
NCI-H650 | 0.828 | 0.709 | 0.961 | 0.753 | 1.02 | 0.507 | 0.43 | 0.358 | 0.438 | 0.441 | 0.855 | 0.735 | 0.795 | 0.732 | 0.687 | 0.61 | 0.702 | 0.687 | 0.809 | 0.865
NCI-H647 | 1.39 | 0.825 | 0.804 | 1.08 | 0.569 | 0.222 | 0.202 | 0.177 | 0.18 | 0.194 | 1.01 | 0.925 | 1.12 | 1.05 | 1.1 | 1.07 | 1.13 | 1.11 | 0.969 | 1.07
